The target of experiment [1] is T1, HCV NS3/4A protease complex, BMS strain (UniProt P27958, species not given/STRAIN_BMS).
T1 construct: other: BMS strain; said of H77 and J4L6S; fused on or other part: A three-lysine solubilising tail at the C-terminus of NS4A; A His tag is implied by the pET21b vector and Ni-NTA purification; Both are printed for the H77 and J4L6S constructs and apply to BMS by inference
Description: FRET peptide assay to monitor HCV NS3/4A proteolytic activity (BMS strain). Type of experiment: biochemical, Hepatitis C virus (genotype 1a). To be noted: read-out: IC50 against the NS3/4A BMS strain in the enzyme assay; BMS strain. In a few lines: (§1)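 Inhibition measured by real-time fluorescence increase as the protease cleaves RET S1 FRET depsipeptide (2 μM final). Enzyme: >90% pure BMS-strain (1a) NS3/4A at 2-3 nM final, or 300 pM with 50 μg/ml BSA for potent compounds. Buffer: 50 mM HEPES pH 7.5, 0.15 M NaCl, 0.1% Triton, 15% glycerol, 10 mM βME.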
T1 sequence (P27958 1027-1657, change not shown, one chain of several): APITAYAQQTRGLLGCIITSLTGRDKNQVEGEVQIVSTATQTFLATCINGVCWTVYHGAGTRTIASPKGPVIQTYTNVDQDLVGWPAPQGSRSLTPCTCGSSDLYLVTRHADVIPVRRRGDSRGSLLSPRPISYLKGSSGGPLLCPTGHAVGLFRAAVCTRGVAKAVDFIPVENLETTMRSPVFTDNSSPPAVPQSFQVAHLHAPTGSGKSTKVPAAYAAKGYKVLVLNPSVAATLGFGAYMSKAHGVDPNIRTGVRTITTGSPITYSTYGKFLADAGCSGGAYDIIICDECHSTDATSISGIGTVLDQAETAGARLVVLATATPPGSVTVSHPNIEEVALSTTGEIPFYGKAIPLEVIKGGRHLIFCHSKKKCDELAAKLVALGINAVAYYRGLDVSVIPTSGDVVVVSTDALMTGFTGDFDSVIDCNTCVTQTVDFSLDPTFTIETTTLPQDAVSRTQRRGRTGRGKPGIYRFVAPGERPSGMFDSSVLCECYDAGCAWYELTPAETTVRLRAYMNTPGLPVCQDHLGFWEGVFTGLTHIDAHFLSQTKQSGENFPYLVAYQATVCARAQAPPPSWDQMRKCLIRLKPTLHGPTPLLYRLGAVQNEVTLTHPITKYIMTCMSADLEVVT

Experiment [2] addresses T2, HCV NS3/4A protease complex, BMS strain (UniProt P27958, species not given/STRAIN_BMS).
T2 construct: other: NS3/4A BMS strain; activity range class; numeric values, unit not given; said of H77 and J4L6S; fused on or other part: A three-lysine solubilising tail at the C-terminus of NS4A; A His tag is implied by the pET21b vector and Ni-NTA purification; Both are printed for the H77 and J4L6S constructs and apply to BMS by inference
The description is as above. Conditions: read-out: HCV Protease (IC50); NS3/4A BMS strain; activity range class. Type of experiment: biochemical, Hepatitis C virus (genotype 1a). A digest of the protocol: as §1
T2 sequence (P27958 1027-1657, change not shown, one chain of several): as above

Experiment [3] has as its target T3, porcine pancreatic elastase (PPE) (Sus scrofa, UniProt P00772).
T3 construct: purchased Sigma, EMDbiosciences
Nature of the experiment: Specificity assay, porcine pancreatic elastase. The class given is biochemical. Conditions: read-out: PPE activity in the specificity assays (IC50). As to the method: The specificities of compounds of the present disclosure were determined against a variety of serine proteases: human neutrophil elastase (HNE), porcine pancreatic elastase (PPE) and human pancreatic chymotrypsin and one cysteine protease: human liver cathepsin B. In all cases a 96-well plate format protocol using either colorimetric p-nitroaniline (pNA) substrate or fluorometric Amino-Methyl-Coumarin (AMC) specific for each enzyme was used as described previously (PCT Patent Application No. WO 00/09543) with some modifications to the serine protease assays. All enzymes were purchased from Sigma, EMDbiosciences while the substrates were from Bachem, Sigma and EMDbiosciences.
The pNA assay for Chymotrypsin included a 1 h enzyme-inhibitor pre-incubation at room temperature followed by addition of substrate and hydrolysis to ˜15% conversion as measured on a Spectramax Pro microplate reader. Compound concentrations varied from 100 to 0.4 μM depending on their potency. Cathepsin B, HNE, and PPE assays each was initiated by addition of substrate to enzyme-inhibitor pre-incubated for 10 min at room temperature and hydrolysis to 15% conversion as measured on cytofluor.
50 mM Tris-HCl, pH 8.0, 50 mM NaCl, 0.1 mM EDTA, 3% DMSO, 0.02% Tween-20, 5 μM succ-AAPV-AMC and 20 nM HNE or 8 nM PPE;
The percentage of inhibition was calculated using the formula: [1−((UVinh−UVblank)/(UVctl−UVblank))]×100 […]

This note sets out measurements from patent publication US7772180B2, “Hepatitis C virus inhibitors” (Bristol-Myers Squibb Company, priority 2006, dated 2010).

Molecules are shown by their SMILES. Read-outs that look alike come from different tables or passages of the source. Bounds are passed on as bounds.

T3 sequence (P00772 27-266): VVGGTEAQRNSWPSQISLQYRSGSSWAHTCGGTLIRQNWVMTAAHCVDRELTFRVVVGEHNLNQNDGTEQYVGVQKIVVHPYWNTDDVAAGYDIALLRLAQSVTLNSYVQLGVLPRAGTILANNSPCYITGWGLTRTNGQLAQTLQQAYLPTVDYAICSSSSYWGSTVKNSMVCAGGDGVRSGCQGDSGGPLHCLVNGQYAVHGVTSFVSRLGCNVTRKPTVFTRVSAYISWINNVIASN

For the compound `C=C[C@@H]1C[C@]1(NC(=O)[C@@H]1C[C@@H](Oc2nc(N(C)C)cc3cc(OC)ccc23)CN1C(=O)C(Nc1cc(C)cc(C)n1)C(C)(C)C)C(=O)NS(=O)(=O)C1CC1` (single isomer, unassigned) [Compound 18], the results for the IC50 in experiment [1], in experiment [2] and in experiment [3] were 3.4 nM, 0.6 to 20 nM and more than 1560 nM, respectively.
